Source: patent publication US10611771B2, “Pyrazolo [3,4-d] pyrimidine derivative” (WEST CHINA HOSPITAL, SICHUAN UNIVERSITY, priority 2016, dated 2020)
“And” between values parts separate entries of the source, which are not always exact repeats. Equal entries are not always repeated.

What was measured:
[1] = test system: H1299 cells; experiment: MTT detection method, inhibitory effect against H1299 cells; format: cell-based
Description: (§1) MTT detection method was used, and MTT is a yellow compound and a dye accepting hydrogen ions, and can be used as the respiratory chain in mitochondria of viable cells. Under the action of succinate dehydrogenase and cytochrome C, the tetrazolium ring broke to form blue formanzan crystal, and the formation amount of formanzan crystal was only directly proportional to the viable counts. The formanzan crystal formed by reduction can dissolve in dimethyl sulfoxide (DMSO), and the optical density (OD) value can be determined at 490 nm using ELISA, to reflect the viable counts.
(§2) • Lung cancer cell lines: A549 and H1299. • Experimental materials: lung cancer cell lines, instruments and tools for cell culture, MTT, the compound mother liquid (10 mmol/L), and the positive control drug Src inhibitor pp1. 1. Specific Method • (3-1) Cell lines A549 and H1299 were recovered, and when the cells were in good conditions, namely cells grew to about 80% after one passage (i.e. the logarithmic growth phase), the cells were planked (96-well plate). • (3-2) Firstly, cells were collected, and the concentration of cell suspension was adjusted with counting chamber. Cells were seeded in 96-well plate at 1000˜10000 cells/well, and the detailed cell numbers in each well were dependent on the growth rate of different cells and the action time of drugs. A549 cells were seeded at 5000 cells, while H1299 cells were also seeded at 5000 cells, 200 μl for each well (100 μl cell suspension+100 μl drug dilution at different concentration gradient). The edge wells (36) were added 200 μl culture media (for prevention of edge effect). • (3-3) After planking and adding drugs, the plate was treated at 24 h, 48 h, and 72 h, and then for coloration, each well was added 200 μl culture media containing 20 μl MTT solution (5 mg/mL). The plate was continually cultured for 1˜4 hours, the incubation was stopped, and the culture supernatant fluid in each well was carefully absorbed. For suspension cells, the culture supernatant fluid in each well need be centrifuged before drawing. 150 μl DMSO was added to each well, and the plate was shaken on a shaking table for 15˜20 min, to allow the crystals to be completely dissolved. • (3-4) Colorimetry: The colorimetry was performed by ELISA, and the optical absorption value of each well was tested at a wavelength of 490 nm or 570 nm, and the result was recorded. • (3-5) Calculation Inhibition ratio=(the control−the drug)/the control×100% • IC50 (50% inhibitory concentration) can be calculated by spass software based on the inhibitory ratio at different concentration. II. Experimental Results • A549 cells were treated at 4 h, 24 h, 48 h, 72 h, and the drug dose was divided into the light concentration group (10 μm, 25 μm, 40 μm) and the high concentration group (50 μm, 80 μm, 100 μm), that were seeded at 6000 cells/well and 5000 cells/well, respectively, to carry out the experiment.
H1299 cells were seeded at 5000 cells/well, and after treatment for 4 h, 24 h, 48 h, and 72 h, the results were shown in Tables 5-9 and FIGS. 5-8: […]

[2] = test system: A549 cells; experiment: MTT detection method, inhibitory effect against A549 cells; format: cell-based
Description: as §1, §2

SMILES: CC(C)(C)n1nc(-c2ccc(OCCOCCOCCOCCO)cc2)c2c(N)ncnc21 [Compound 5, 2-(2-(2-(2-(4-(4-amino-1-tert-butyl-1H-pyrazolo[3,4-d]pyrimidin-3-)phenoxy)ethoxy)ethoxy)ethoxy)ethanol]
- The inhibitory ratio (%) for three parallel assays ([1]; 4 h, 10 μm): 4% and 6%
- The mean inhibitory ratio (%) ([1]; 4 h, 10 μm): 4%
- The inhibitory ratio (%) for three parallel assays ([1]; 4 h, 25 μm): 6% and 7%
- The mean inhibitory ratio (%) ([1]; 4 h, 25 μm): 7%
- The inhibitory ratio (%) for three parallel assays ([1]; 4 h, 40 μm): 7% and 8%
- The mean inhibitory ratio (%) ([1]; 4 h, 40 μm): 8%
- The inhibitory ratio (%) for three parallel assays ([1]; 4 h, 50 μm): 13% and 9%
- The mean inhibitory ratio (%) ([1]; 4 h, 50 μm): 10%
- The inhibitory ratio (%) for three parallel assays ([1]; 4 h, 80 μm): 12% and 13%
- The mean inhibitory ratio (%) ([1]; 4 h, 80 μm): 12%
- The inhibitory ratio (%) for three parallel assays ([1]; 4 h, 100 μm): 13% and 15% and 14%
- The mean inhibitory ratio (%) ([1]; 4 h, 100 μm): 14%
- The inhibitory ratio (%) for three parallel assays ([1]; 24 h, 10 μm): 10% and 8% and 13%
- The mean inhibitory ratio (%) ([1]; 24 h, 10 μm): 11%
- The inhibitory ratio (%) for three parallel assays ([1]; 24 h, 25 μm): 14% and 13%
- The mean inhibitory ratio (%) ([1]; 24 h, 25 μm): 14%
- The inhibitory ratio (%) for three parallel assays ([1]; 24 h, 40 μm): 11% and 13% and 14%
- The mean inhibitory ratio (%) ([1]; 24 h, 40 μm): 13%
- The inhibitory ratio (%) for three parallel assays ([1]; 24 h, 50 μm): 20% and 25% and 26%
- The mean inhibitory ratio (%) ([1]; 24 h, 50 μm): 24%
- The inhibitory ratio (%) for three parallel assays ([1]; 24 h, 80 μm): 28% and 26% and 24%
- The mean inhibitory ratio (%) ([1]; 24 h, 80 μm): 26%
- The inhibitory ratio (%) for three parallel assays ([1]; 24 h, 100 μm): 29% and 31% and 26%
- The mean inhibitory ratio (%) ([1]; 24 h, 100 μm): 28%
- The inhibitory ratio (%) for three parallel assays ([1]; 48 h, 10 μm): 4% and 5% and 6%
- The mean inhibitory ratio (%) ([1]; 48 h, 10 μm): 5%
- The inhibitory ratio (%) for three parallel assays ([1]; 48 h, 25 μm): 15% and 18% and 14%
- The mean inhibitory ratio (%) ([1]; 48 h, 25 μm): 16%
- The inhibitory ratio (%) for three parallel assays ([1]; 48 h, 40 μm): 22% and 25%
- The mean inhibitory ratio (%) ([1]; 48 h, 40 μm): 23%
- The inhibitory ratio (%) for three parallel assays ([1]; 48 h, 50 μm): 24% and 26%
- The mean inhibitory ratio (%) ([1]; 48 h, 50 μm): 25%
- The inhibitory ratio (%) for three parallel assays ([1]; 48 h, 80 μm): 36% and 38%
- The mean inhibitory ratio (%) ([1]; 48 h, 80 μm): 37%
- The inhibitory ratio (%) for three parallel assays ([1]; 48 h, 100 μm): 42% and 41%
- The mean inhibitory ratio (%) ([1]; 48 h, 100 μm): 41%
- The inhibitory ratio (%) for three parallel assays ([1]; 72 h, 10 μm): 8% and 5% and 2%
- The mean inhibitory ratio (%) ([1]; 72 h, 10 μm): 5%
- The inhibitory ratio (%) for three parallel assays ([1]; 72 h, 25 μm): 7% and 4% and 3%
- The mean inhibitory ratio (%) ([1]; 72 h, 25 μm): 5%
- The inhibitory ratio (%) for three parallel assays ([1]; 72 h, 40 μm): 18% and 21% and 23%
- The mean inhibitory ratio (%) ([1]; 72 h, 40 μm): 20%
- The inhibitory ratio (%) for three parallel assays ([1]; 72 h, 50 μm): 26% and 23%
- The mean inhibitory ratio (%) ([1]; 72 h, 50 μm): 24%
- The inhibitory ratio (%) for three parallel assays ([1]; 72 h, 80 μm): 37% and 36% and 38%
- The mean inhibitory ratio (%) ([1]; 72 h, 80 μm): 37%
- The inhibitory ratio (%) for three parallel assays ([1]; 72 h, 100 μm): 45% and 41% and 39%
- The mean inhibitory ratio (%) ([1]; 72 h, 100 μm): 42%
- The inhibitory ratio (%) for three parallel assays ([2]; 4 h, 10 μm): 26.88% and 26.25% and 28.75%
- The mean inhibitory ratio (%) ([2]; 4 h, 10 μm): 27.29%
- The mean inhibitory ratio (%) ([2]; 4 h, 25 μm): 21.77%
- The inhibitory ratio (%) for three parallel assays ([2]; 4 h, 40 μm): 23.44% and 20.94% and 18.13%
- The mean inhibitory ratio (%) ([2]; 4 h, 40 μm): 20.83%
- The inhibitory ratio (%) for three parallel assays ([2]; 4 h, 50 μm): 16.57% and 11.14% and 14.57%
- The mean inhibitory ratio (%) ([2]; 4 h, 50 μm): 14.10%
- The inhibitory ratio (%) for three parallel assays ([2]; 4 h, 80 μm): 20.86% and 20.29% and 14.57%
- The mean inhibitory ratio (%) ([2]; 4 h, 80 μm): 18.57%
- The inhibitory ratio (%) for three parallel assays ([2]; 4 h, 100 μm): 24.00% and 20.86% and 22.57%
- The mean inhibitory ratio (%) ([2]; 4 h, 100 μm): 22.48%
- The inhibitory ratio (%) for three parallel assays ([2]; 24 h, 10 μm): 14.35% and 15.65% and 13.26%
- The mean inhibitory ratio (%) ([2]; 24 h, 10 μm): 14.42%
- The inhibitory ratio (%) for three parallel assays ([2]; 24 h, 25 μm): 22.39% and 13.70% and 14.78%
- The mean inhibitory ratio (%) ([2]; 24 h, 25 μm): 16.96%
- The inhibitory ratio (%) for three parallel assays ([2]; 24 h, 40 μm): 26.30% and 16.52% and 14.13%
- The mean inhibitory ratio (%) ([2]; 24 h, 40 μm): 18.99%
- The inhibitory ratio (%) for three parallel assays ([2]; 24 h, 50 μm): 17.08% and 18.33% and 17.92%
- The mean inhibitory ratio (%) ([2]; 24 h, 50 μm): 17.78%
- The inhibitory ratio (%) for three parallel assays ([2]; 24 h, 80 μm): 22.50% and 20.83% and 20.21%
- The mean inhibitory ratio (%) ([2]; 24 h, 80 μm): 21.18%
- The inhibitory ratio (%) for three parallel assays ([2]; 24 h, 100 μm): 27.92% and 27.50%
- The mean inhibitory ratio (%) ([2]; 24 h, 100 μm): 27.78%
- The mean inhibitory ratio (%) ([2]; 48 h, 10 μm): 9.64%
- The inhibitory ratio (%) for three parallel assays ([2]; 48 h, 25 μm): 14.84% and 14.22% and 13.91%
- The mean inhibitory ratio (%) ([2]; 48 h, 25 μm): 14.32%
- The inhibitory ratio (%) for three parallel assays ([2]; 48 h, 40 μm): 19.22% and 26.72% and 20.63%
- The mean inhibitory ratio (%) ([2]; 48 h, 40 μm): 22.19%
- The inhibitory ratio (%) for three parallel assays ([2]; 48 h, 50 μm): 15.33% and 13.33% and 12.83%
- The mean inhibitory ratio (%) ([2]; 48 h, 50 μm): 13.83%
- The inhibitory ratio (%) for three parallel assays ([2]; 48 h, 80 μm): 15.33% and 19.67% and 18.00%
- The mean inhibitory ratio (%) ([2]; 48 h, 80 μm): 17.67%
- The inhibitory ratio (%) for three parallel assays ([2]; 48 h, 100 μm): 30.50% and 31.33% and 31.67%
- The mean inhibitory ratio (%) ([2]; 48 h, 100 μm): 31.17%
- The inhibitory ratio (%) for three parallel assays ([2]; 72 h, 10 μm): 9.82% and 8.11% and 15.05%
- The mean inhibitory ratio (%) ([2]; 72 h, 10 μm): 10.99%
- The inhibitory ratio (%) for three parallel assays ([2]; 72 h, 25 μm): 35.41% and 32.43% and 39.37%
- The mean inhibitory ratio (%) ([2]; 72 h, 25 μm): 35.74%
- The inhibitory ratio (%) for three parallel assays ([2]; 72 h, 40 μm): 50.18% and 45.68% and 50.45%
- The mean inhibitory ratio (%) ([2]; 72 h, 40 μm): 48.77%
- The inhibitory ratio (%) for three parallel assays ([2]; 72 h, 50 μm): 20.27% and 17.70% and 22.30%
- The mean inhibitory ratio (%) ([2]; 72 h, 50 μm): 20.09%
- The inhibitory ratio (%) for three parallel assays ([2]; 72 h, 80 μm): 29.59% and 28.51% and 30.14%
- The mean inhibitory ratio (%) ([2]; 72 h, 80 μm): 29.41%
- The inhibitory ratio (%) for three parallel assays ([2]; 72 h, 100 μm): 53.11% and 52.70% and 54.05%
- The mean inhibitory ratio (%) ([2]; 72 h, 100 μm): 53.29%
